Data reported in paper PMC11859074, “Exploring the Anticancer Potential of NO-Donor Oxadiazole Assemblies Against Malignant Pleural Mesothelioma” (Pharmaceutics, 2025).
“And” between values parts separate entries of the source, which are not always exact repeats. Equal values may be shown once.

Experiments:
[1] = tested on: AB1 (mouse malignant mesothelioma cell line); test: MTT cytotoxicity assay, AB1 cells; type: cell-based; settings: 72 h exposure
Method: (§1) AB1 (mouse malignant mesothelioma cell line) and JU77 (human mesothelioma cell line) were obtained from Cell Bank Australia; MRC-5 (human embryonic lung fibroblast cell line) was obtained from ATCC. […] Cells were grown in tissue culture flasks (75 cm^2 and 25 cm^2, SPL Life Sciences, Pocheon, South Korea). […] The cytotoxicity of compounds was determined using the MTT colorimetric test. Cells were harvested from culture flasks by trypsinization and seeded into Cellstar 96-well microculture plates at a seeding density of 6000 cells per well (6 × 10^4 cells per mL). After the cells were allowed to resume exponential growth for 24 h, they were exposed to drugs at different concentrations in media for 72 h. The tested compounds were diluted in the complete medium at the desired concentrations added to each well (100 μL) and serially diluted to other wells. After 72 h of exposure, the medium was replaced with MTT (5 mg mL^−1, 100 μL per well) and incubated for an additional 50 min. Subsequently, the medium was aspirated, and the purple formazan crystals formed in viable cells were dissolved in DMSO (100 μL per well). […] The evaluation was based on means from at least three independent experiments, each comprising three replicates per concentration level.

[2] = tested on: JU77 (human mesothelioma cell line); test: cells; type: cell-based; settings: for IC50: Homo sapiens, MTT assay, 72 h exposure; for SFJU77 (selectivity factor): IC50(MRC-5)/IC50(JU77); for times higher cytotoxicity in human MPM cells compared to human lung fibroblasts: 72 h
Method: as §1

[3] = tested on: MRC-5 (human embryonic lung fibroblast cell line); test: MTT cytotoxicity assay, MRC-5 cells; type: cell-based; settings: MRC5, 72 h exposure
Method: as §1

[4] = NO release assay (Griess assay, phosphate buffer with L-cysteine); settings: for NO Released (%) 1 h / NO Released (%) 24 h / NO Released (%) 48 h: % NO2− (μmol/μmol) relative to initial concentration (100 μM), L-cysteine; for NO Released (%) 1 h: phosphate buffer pH 7.4, 37 °C; for NO Released (%) 24 h: phosphate buffer pH 7.4, 24 h; for NO Released (%) 48 h: phosphate buffer pH 7.4, 48 h; for NO-donor capacity: Griess assay, time point not stated; for Fold Change 24 h/1 h: ratio of NO released at 24 h to 1 h; for Fold Change 48 h/1 h: ratio of NO released at 48 h to 1 h; for Fold Change 48 h/24 h: ratio of NO released at 48 h to 24 h
[5] = tested on: AB1 and JU77 mesothelioma cell lines; test: cells; type: cell-based, mouse and human; settings: for IC50: MPM, range over AB1 and JU77, 72 h MTT, read-out: IC50 values in both cell lines
Method: as §1

| Structure (SMILES) | IC50 [1] | IC50 [2] | SFJU77 (selectivity factor) [2] | times higher cytotoxicity in human MPM cells compared to human lung fibroblasts [2] | IC50 [3] | NO Released (%) 1 h [4] | NO Released (%) 24 h [4] | NO Released (%) 48 h [4] | NO-donor capacity [4] | Fold Change 24 h/1 h [4] | Fold Change 48 h/1 h [4] | Fold Change 48 h/24 h [4] | selectivity for cancer cells (in words) ([2]; MPM cells vs MRC-5 human lung fibroblasts) | IC50 [5] | cytotoxicity (in words) [5] |
| --- | --- | --- | --- | --- | --- | --- | --- | --- | --- | --- | --- | --- | --- | --- | --- |
| N#Cc1c(-c2noc(-c3cccc([N+](=O)[O-])c3)n2)no[n+]1[O-] [Compound 2c, 3-Cyano-4-(5-(3-nitrophenyl)-1,2,4-oxadiazolyl)furoxan] | 2.8 ± 0.5 µM | 1.2 ± 0.2 µM | 3.6 | 2.4-3.6 times | 4.3 ± 0.3 µM | 61 ± 8% | 107 ± 8% | 107 ± 10% | > 100% | 1.8 | 1.8 | 1.0 |  |  |  |
| N#Cc1c(-c2noc(-c3ccncc3)n2)no[n+]1[O-] [Compound 2e, 3-Cyano-4-(5-(pyridin-4-yl)-1,2,4-oxadiazolyl)furoxan] | 7.9 ± 2 µM | 4.2 ± 0.8 µM | 1.1 |  | 4.7 ± 0.3 µM | 53 ± 7% | 87 ± 13% | 87 ± 11% |  | 1.6 | 1.6 | 1.0 | low selectivity for cancer cells |  |  |
| N#Cc1c(-c2noc(-c3ccco3)n2)no[n+]1[O-] [Compound 2k, 3-Cyano-4-(5-(2-furyl)-1,2,4-oxadiazolyl)furoxan] | 1.4 ± 0.4 µM | 0.99 ± 0.13 µM | 1.5 |  | 1.5 ± 0.3 µM | 73 ± 7% | 97 ± 6% | 104 ± 12% | > 100% | 1.3 | 1.4 | 1.1 |  | 0.87 to 1.8 µM |  |
| COc1ccc(-c2nc(-c3no[n+]([O-])c3C#N)no2)cc1 [Compound 2h, 3-Cyano-4-(5-(4-methoxyphenyl)-1,2,4-oxadiazolyl)furoxan] | 4.1 ± 0.7 µM | 2.9 ± 0.3 µM | 1.4 |  | 4.2 ± 0.7 µM | 54 ± 6% | 79 ± 5% | 86 ± 4% |  | 1.5 | 1.6 | 1.1 |  |  |  |
| CCOc1no[n+]([O-])c1S(=O)(=O)c1ccccc1 [CHF-2363, 4-ethoxy-3-phenylsulphonylfuroxan, reference compound] |  |  |  |  |  | 26 ± 10% | 71 ± 4% | 77 ± 9% |  | 2.7 | 3.0 | 1.1 |  |  |  |
| COCc1nc(-c2no[n+]([O-])c2C#N)no1 [Compound 2f, 3-Cyano-4-(5-(methoxymethyl)-1,2,4-oxadiazolyl)furoxan] | > 150 µM | > 150 µM |  |  | > 150 µM | 50 ± 7% | 66 ± 11% | 71 ± 11% |  | 1.3 | 1.4 | 1.1 |  |  | no cytotoxic effects |
| N#Cc1c(-c2noc(-c3ccc([N+](=O)[O-])cc3)n2)no[n+]1[O-] [Compound 2b, 3-Cyano-4-(5-(4-nitrophenyl)-1,2,4-oxadiazolyl)furoxan] | 4.1 ± 0.9 µM | 2.7 ± 0.2 µM | 1.6 |  | 4.4 ± 0.6 µM | 51 ± 11% | 74 ± 1% | 80 ± 4% |  | 1.5 | 1.6 | 1.1 |  |  |  |
| NC(=O)c1c(CO)no[n+]1[O-] [CAS-1609, 3-carbamoyl-4-(hydroxymethyl)furoxan, reference compound] |  |  |  |  |  | 27% and 27 ± 3% | 68 ± 6% | 73 ± 6% |  | 2.5 | 2.7 | 1.1 |  |  |  |
| N#Cc1c(-c2noc(-c3ccccc3)n2)no[n+]1[O-] [Compound 2a, 3-Cyano-4-(5-phenyl-1,2,4-oxadiazolyl)furoxan] | 3.4 ± 0.2 µM | 3.7 ± 1 µM | 1.0 |  | 3.7 µM | 50 ± 8% | 59 ± 5% | 89 ± 6% |  | 1.2 | 1.8 | 1.5 |  |  |  |
| N#Cc1c(-c2ncon2)no[n+]1[O-] [Compound 2l, 3-Cyano-4-(1,2,4-oxadiazolyl)furoxan] | 7 ± 1.3 µM | 5.4 ± 1.3 µM | 0.9 |  | 4.6 ± 1 µM | 42 ± 5% | 68 ± 8% | 72 ± 8% |  | 1.6 | 1.7 | 1.1 |  | 5.4 to 7 µM |  |
| N#Cc1c(-c2noc(-c3ccccc3Cl)n2)no[n+]1[O-] [Compound 2j, 4-(5-(2-Chlorophenyl)-1,2,4-oxadiazolyl)-3-cyanofuroxan] | 2.1 ± 0.3 µM | 1.4 ± 0.2 µM | 2.4 | 2.4-3.6 times | 3.3 ± 0.3 µM | 53 ± 4% | 80 ± 3% | 84 ± 2% |  | 1.5 | 1.6 | 1.1 |  |  |  |
| COc1ccc(-c2nc(-c3no[n+]([O-])c3C#N)no2)cc1OC [Compound 2i, 3-Cyano-4-(5-(3,4-dimethoxyphenyl)-1,2,4-oxadiazolyl)furoxan] | 3.3 ± 0.7 µM | 1.6 ± 0.4 µM | 2.5 | 2.4-3.6 times | 4 ± 0.6 µM | 54 ± 14% | 82 ± 14% | 94 ±14% |  | 1.5 | 1.7 | 1.1 |  |  |  |
| Cc1ccc(-c2nc(-c3no[n+]([O-])c3C#N)no2)cc1 [Compound 2g, 3-Cyano-4-(5-(p-tolyl)-1,2,4-oxadiazolyl)furoxan] | 4.9 ± 1.4 µM | 3.1 ± 0.2 µM | 1.5 |  | 4.8 ± 0.3 µM | 59 ± 1% | 74 ± 6% | 81 ± 10% |  | 1.3 | 1.4 | 1.1 |  |  |  |
